Key:
[1] = water solubility of lyophilized product; assay type: physicochemical
Protocol: TC was first transformed into anhydrotetracycline; an amino group was then introduced into the D ring. Stoel, L. et al.(1976) J. Pharm. Sci. 65, 1794-1799; Menachery, M. D. & Cava, M. P. (1984) Can. J. Chem. 62, 2583-2584. Because of the low activity of the aromatic amine, a glycine was coupled to the D ring of the TC molecule in order to introduce a more reactive primary amine by the following procedure. Boc-glycine (192.7 mg, 1.1 mmol), 9-NH2-ATC (514 mg, 1 mmol) and methyl morpholine (MM, 220 μL, 2 mmol) were dissolved in DMF (8 mL) and stirred at 0° C. for 1 h. DCC (227 mg, 1.1 mmol, in 2 mL DCM) was added to the solution and stirred for 1 h. The temperature of the solution was then raised to R.T. and stirred overnight. The resulting suspension was filtered. The solid (product and DCU) was washed three times with ethyl acetate and dried under vacuum. The Boc protection was removed with TFA. DCU was removed to yield 360 mg of 9-Gly-ATC (lyophilized), which is water-soluble.

[2] = in vitro bone-targeting capacity: binding of conjugates to hydroxyapatite; conditions: conjugate 1 mg/mL in phosphate buffered saline, 5 mg HA, 1 h at R.T., UV absorbance of supernatant
Protocol: Conjugates were dissolved in phosphate buffered saline to give a concentration of 1 mg/mL. The conjugate solution (100 μL) and 100 μL of the same buffer were incubated with 5 mg of hydroxyapatite (HA, Bio-Gel HTP, DNA grade; BIO-RAD, Hercules, Calif.) for 1 h at R.T. The solution was then centrifuged. The UV absorbance at certain wavelengths (FITC, 490 nm; 9-Gly-ATC, 450 nm) of the supernatant was monitored with an ELISA plate reader. Background correction was applied. The data presented is the average of three samples. The binding efficiency is expressed as the percentage of conjugates bound to HA (FIG. 4).

For `Cc1c2c(c(O)c3c(O)c(NC(=O)CN)ccc13)C(=O)C1(O)C(=O)C(C(N)=O)=C(O)C(N(C)C)C1C2` (centres unmarked) [9-Gly-ATC, N-(9-aminoanhydrotetracycline)glycyl amide], the water solubility [1] was “water-soluble” and the “binding to HA (percentage of conjugates bound to HA)” value [2] was “slightly lower values”.

— patent US20050287114A1, “Water-soluble polymeric bone-targeting drug delivery system” (University of Utah Research Foundation, priority 2003, published 2005)
